In patent publication US10653717B2, “Antibiotic compositions” (priority 2016, dated 2020):
Like-named read-outs stand apart in the source and are kept apart here.

How the values were obtained:
[1] = test system: AB-1: Acinetobacter baumannii H#
Experimental: (§1) There are five most difficult-to-treat MDR Gram-negative pathogen species in the clinic, which are also typical GSH-positive bacteria: Klebsiella pneumonia, Acinetobacter baumannii, Pseudomonas aeruginosa, Enterobacter cloacae and Escherichia coli. Two strains of each species were isolated, overnight cultures were diluted 1:1000 times in LB medium, and treated with Ag^+ with a serial concentration of ebselen in combination for 16 h. […] Among these five species, A. baumannii and E. cloacae are very readily formed drug-resistant strains, which are needed to be treated by or the fourth-generation cephalosporin in the clinic, including imipenem, cefepime, and cefotaxime, etc.
(§2) Ten clinical isolated MDR Gram-negative (GSH-positive) strains were grown until an OD600 nm of 0.4 and were diluted 1:100 into 100 μl of LB medium in 96 micro-well plates. Serial dilutions of 100 μl ebselen and AgNO3 were added to the individual wells. […] The culture treated with 0.8% (v/v) DMSO was used as a control.

[2] = test system: AB-2: A. baumannii 0361#
Experimental: as §1, §2

[3] = test system: ECL-1: Enterobacter cloacae 0431#
Experimental: as §1, §2

[4] = test system: ECL-2: E. cloacae 2301#
Experimental: as §1, §2

[5] = test system: ECO-1: Escherichia coli 1139#
Experimental: as §1, §2

[6] = test system: ECO-2: E. coli 2219#
Experimental: as §1, §2

[7] = test system: ECO-3: E. coli ZY-1
Experimental: as §1, §2

[8] = test system: ECO-4: MG1655 (ATCC 700926)
Experimental: as §1, §2

[9] = test system: KP-1: Klebsiella pneumoniae subsp. pneumoniae 13#
Experimental: as §1, §2

[10] = test system: KP-2: K. pneumoniae subsp. pneumoniae 0322#
Experimental: as §1, §2

[11] = test system: PA-1: Pseudomonas aeruginosa 1298#
Experimental: as §1, §2

[12] = test system: PA-2: P. aeruginosa 0009#
Experimental: as §1, §2

O=[N+]([O-])[O-].[Ag+] [silver, silver nitrate]
MIC of silver in the presence of ebselen ([1]; Ebselen 0 μM): 80 µM
MIC of silver in the presence of ebselen ([1]; Ebselen 1 μM): 80 µM
MIC of silver in the presence of ebselen ([1]; Ebselen 2 μM): 40 µM
MIC of silver in the presence of ebselen ([1]; Ebselen 4 μM): 10 µM
MIC of silver in the presence of ebselen ([2]; Ebselen 0 μM): 80 µM
MIC of silver in the presence of ebselen ([2]; Ebselen 1 μM): 80 µM
MIC of silver in the presence of ebselen ([2]; Ebselen 2 μM): 40 µM
MIC of silver in the presence of ebselen ([2]; Ebselen 4 μM): 20 µM
MIC of silver in the presence of ebselen ([3]; Ebselen 0 μM): 80 µM
MIC of silver in the presence of ebselen ([3]; Ebselen 1 μM): 40 µM
MIC of silver in the presence of ebselen ([3]; Ebselen 2 μM): 20 µM
MIC of silver in the presence of ebselen ([3]; Ebselen 4 μM): 20 µM
MIC of silver in the presence of ebselen ([4]; Ebselen 0 μM): 80 µM
MIC of silver in the presence of ebselen ([4]; Ebselen 1 μM): 40 µM
MIC of silver in the presence of ebselen ([4]; Ebselen 2 μM): 40 µM
MIC of silver in the presence of ebselen ([4]; Ebselen 4 μM): 10 µM
MIC of silver in the presence of ebselen ([5]; Ebselen 0 μM): 40 µM
MIC of silver in the presence of ebselen ([5]; Ebselen 1 μM): 20 µM
MIC of silver in the presence of ebselen ([5]; Ebselen 2 μM): 10 µM
MIC of silver in the presence of ebselen ([5]; Ebselen 4 μM): 5 µM
MIC of silver in the presence of ebselen ([6]; Ebselen 0 μM): 80 µM
MIC of silver in the presence of ebselen ([6]; Ebselen 1 μM): 80 µM
MIC of silver in the presence of ebselen ([6]; Ebselen 2 μM): 40 µM
MIC of silver in the presence of ebselen ([6]; Ebselen 4 μM): 10 µM
MIC of silver in the presence of ebselen ([7]; Ebselen 0 μM): 40 µM
MIC of silver in the presence of ebselen ([7]; Ebselen 1 μM): 40 µM
MIC of silver in the presence of ebselen ([7]; Ebselen 2 μM): 20 µM
MIC of silver in the presence of ebselen ([7]; Ebselen 4 μM): 10 µM
MIC of silver in the presence of ebselen ([8]; Ebselen 0 μM): 40 µM
MIC of silver in the presence of ebselen ([8]; Ebselen 1 μM): 20 µM
MIC of silver in the presence of ebselen ([8]; Ebselen 2 μM): 10 µM
MIC of silver in the presence of ebselen ([8]; Ebselen 4 μM): 5 µM
MIC of silver in the presence of ebselen ([9]; Ebselen 0 μM): 80 µM
MIC of silver in the presence of ebselen ([9]; Ebselen 1 μM): 80 µM
MIC of silver in the presence of ebselen ([9]; Ebselen 2 μM): 40 µM
MIC of silver in the presence of ebselen ([9]; Ebselen 4 μM): 10 µM
MIC of silver in the presence of ebselen ([10]; Ebselen 0 μM): 80 µM
MIC of silver in the presence of ebselen ([10]; Ebselen 1 μM): 40 µM
MIC of silver in the presence of ebselen ([10]; Ebselen 2 μM): 20 µM
MIC of silver in the presence of ebselen ([10]; Ebselen 4 μM): 20 µM
MIC of silver in the presence of ebselen ([11]; Ebselen 0 μM): 80 µM
MIC of silver in the presence of ebselen ([11]; Ebselen 1 μM): 80 µM
MIC of silver in the presence of ebselen ([11]; Ebselen 2 μM): 20 µM
MIC of silver in the presence of ebselen ([11]; Ebselen 4 μM): 20 µM
MIC of silver in the presence of ebselen ([12]; Ebselen 0 μM): 80 µM
MIC of silver in the presence of ebselen ([12]; Ebselen 1 μM): 80 µM
MIC of silver in the presence of ebselen ([12]; Ebselen 2 μM): 40 µM
MIC of silver in the presence of ebselen ([12]; Ebselen 4 μM): 20 µM
